The numbers were not newly measured in patent US6482309B1, “Electrolytic generation of nascent iodine as a method of treatment and for the prevention of infections associated with medical implant devices” (OxiBio, Inc., priority 1999, dated 2002), which cites them from elsewhere.

The test system of this data set is bacteria and viruses.

`II` [free iodine, iodine]: the “level of free iodine required for efficient microbial killing” value was around 2 ppm.
